Where “and” joins values, the source holds several entries; their conditions need not be identical. Equal entries are not always repeated. Toxic doses and inconclusive results are not listed. How the source made its calls: active means survival T/C of 150% or more; inactive means T/C below 125% in these data. Bridge positions count the residues as written; N and C are the ends. Peptide text beside a SMILES is read from it. I, II: the chains in the order shown.
Tested on: P388 leukemia ip, CD2F1 mice, survival T/C
Test: NCI In Vivo Anticancer Drug Screen. Data for tumor model P388 Leukemia (intraperitoneal) in CD2F1 (CDF1) mice
Conditions: endpoint: median survival time, higher = longer survival
In short: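 Mice carrying the transplanted tumor received test compound or vehicle. Survival was recorded in each group, and the value is the treated-group measurement divided by that of the vehicle-treated control group.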

[1] = dose: 60.0 mg/kg/injection, schedule: Q01DX005 (ip), vehicle: Klucel (hydroxypropylcellulose) (HPC)
[2] = dose: 50.0 mg/kg/injection, schedule: Q01DX005 (ip), vehicle: saline with Tween-80
[3] = dose: 100.0 mg/kg/injection, schedule: Q01DX005 (ip), vehicle: saline with Tween-80
[4] = dose: 200.0 mg/kg/injection, schedule: Q01DX005 (ip), vehicle: saline with Tween-80
[5] = dose: 50.0 mg/kg/injection, schedule: Q01DX005 (ip), vehicle: Klucel (hydroxypropylcellulose) (HPC)
[6] = dose: 100.0 mg/kg/injection, schedule: Q01DX005 (ip), vehicle: Klucel (hydroxypropylcellulose) (HPC)
[7] = dose: 200.0 mg/kg/injection, schedule: Q01DX005 (ip), vehicle: Klucel (hydroxypropylcellulose) (HPC)

Measured: T/C

Oc1ccccc1-c1cc(-c2ccccc2)nc(NCCCCCCCCNc2nc(-c3ccccc3)cc(-c3ccccc3O)n2)n1
inactive: dose: 100.0 mg/kg/injection, schedule: Q04DX003 (ip), vehicle: saline 92 % of control | dose: 200.0 mg/kg/injection, schedule: Q04DX003 (ip), vehicle: saline 94 % of control | dose: 400.0 mg/kg/injection, schedule: Q04DX003 (ip), vehicle: saline 88 % of control

O=c1[nH]cc(CCCc2ccccc2)c(=O)[nH]1
inactive: [1] 102 % of control | dose: 120.0 mg/kg/injection, schedule: Q01DX005 (ip), vehicle: Klucel (hydroxypropylcellulose) (HPC) 95 % of control | dose: 240.0 mg/kg/injection, schedule: Q01DX005 (ip), vehicle: Klucel (hydroxypropylcellulose) (HPC) 95 % of control

COc1ccc2nc3ccccc3c(NCCCCCCNc3c4ccccc4nc4ccc(OC)cc34)c2c1
inactive: dose: 0.62 mg/kg/injection, schedule: Q## X009 (ip), vehicle: lactic acid 108 % of control | dose: 0.63 mg/kg/injection, schedule: Q01DX009 (ip), vehicle: other 100 % of control | dose: 1.25 mg/kg/injection, schedule: Q01DX009 (ip), vehicle: other 107 % of control | dose: 1.25 mg/kg/injection, schedule: Q## X009 (ip), vehicle: lactic acid 111 % of control | dose: 2.5 mg/kg/injection, schedule: Q01DX009 (ip), vehicle: other 100 % of control | dose: 2.5 mg/kg/injection, schedule: Q## X009 (ip), vehicle: lactic acid 119 % of control | dose: 3.75 mg/kg/injection, schedule: Q01DX009 (ip), vehicle: other 109 % of control | dose: 5.0 mg/kg/injection, schedule: Q01DX009 (ip), vehicle: other 116 % of control | dose: 5.0 mg/kg/injection, schedule: Q## X009 (ip), vehicle: lactic acid 113 % of control

C=CCO[C@H]1CO[C@H]2[C@@H]1OC[C@H]2OCC=C
inactive: [2] 96 % of control | [3] 97 % of control | [4] 99 % of control

CNC(C)C#N (stereo not given)
inactive: dose: 3.75 mg/kg/injection, schedule: Q01DX005 (ip), vehicle: saline 94 % of control | dose: 7.5 mg/kg/injection, schedule: Q01DX005 (ip), vehicle: saline 100 % of control | dose: 15.0 mg/kg/injection, schedule: Q01DX005 (ip), vehicle: saline 102 % of control

O=C(Nc1c2ccccc2nc2ccccc12)c1ccc([N+](=O)[O-])cc1
inactive: [5] 94 % of control | [6] 94 % of control | [7] 100 % of control

CCCCCC1=C/N\C(C#N)=C(C#N)/N=C/C(CCCCC)=C\N\C(C#N)=C(C#N)/N=C\1
inactive: dose: 6.25 mg/kg/injection, schedule: Q01DX009 (ip), vehicle: Klucel (hydroxypropylcellulose) (HPC) 93 % of control | dose: 12.5 mg/kg/injection, schedule: Q01DX009 (ip), vehicle: Klucel (hydroxypropylcellulose) (HPC) 93 % of control | dose: 25.0 mg/kg/injection, schedule: Q01DX009 (ip), vehicle: Klucel (hydroxypropylcellulose) (HPC) 93 % of control

COc1c2occc2cc2ccc(=O)oc12
inactive: dose: 8.0 mg/kg/injection, schedule: Q01DX009 (ip), vehicle: saline with Tween-80 89 % of control | dose: 11.0 mg/kg/injection, schedule: Q01DX009 (ip), vehicle: saline with Tween-80 111 % of control | dose: 16.0 mg/kg/injection, schedule: Q01DX009 (ip), vehicle: saline with Tween-80 87 % of control | dose: 22.0 mg/kg/injection, schedule: Q01DX009 (ip), vehicle: saline with Tween-80 102 % of control | dose: 25.0 mg/kg/injection, schedule: Q01DX009 (ip), vehicle: saline with Tween-80 121 % of control | dose: 32.0 mg/kg/injection, schedule: Q01DX009 (ip), vehicle: saline with Tween-80 100 % of control | dose: 44.0 mg/kg/injection, schedule: Q01DX009 (ip), vehicle: saline with Tween-80 104 % of control | dose: 50.0 mg/kg/injection, schedule: Q01DX009 (ip), vehicle: saline with Tween-80 116 % of control | dose: 64.0 mg/kg/injection, schedule: Q01DX009 (ip), vehicle: saline with Tween-80 88 % of control | dose: 88.0 mg/kg/injection, schedule: Q01DX009 (ip), vehicle: saline with Tween-80 107 % of control | dose: 100.0 mg/kg/injection, schedule: Q01DX009 (ip), vehicle: saline with Tween-80 117 % of control | dose: 128.0 mg/kg/injection, schedule: Q01DX009 (ip), vehicle: saline with Tween-80 106 % of control | dose: 256.0 mg/kg/injection, schedule: Q01DX009 (ip), vehicle: saline with Tween-80 94 % of control

O=C(O)CS(=O)(=O)N1CCOCC1
inactive: [5] 102 % of control | [6] 94 % of control

COCOc1c(OC)c(C2(O)C(=O)N(C)c3ccccc32)c(OCOC)c(OC)c1C1(O)C(=O)N(C)c2ccccc21 (stereo not given)
inactive: dose: 60.0 mg/kg/injection, schedule: Q01DX005 (ip), vehicle: saline with Tween-80 100 % of control | dose: 120.0 mg/kg/injection, schedule: Q01DX005 (ip), vehicle: saline with Tween-80 89 % of control | dose: 240.0 mg/kg/injection, schedule: Q01DX005 (ip), vehicle: saline with Tween-80 88 % of control

COc1ccc(CC(C)NCC(O)c2ccc(O)c(NC=O)c2)cc1 (stereo not given)
inactive: dose: 6.25 mg/kg/injection, schedule: Q01DX009 (ip), vehicle: saline 100 % of control | dose: 12.5 mg/kg/injection, schedule: Q01DX009 (ip), vehicle: saline 101 % of control | dose: 25.0 mg/kg/injection, schedule: Q01DX009 (ip), vehicle: saline 99 % of control | dose: 50.0 mg/kg/injection, schedule: Q01DX009 (ip), vehicle: suspension in saline 99 % of control | dose: 200.0 mg/kg/injection, schedule: Q01DX009 (ip), vehicle: suspension in saline 91 % of control

NC(=S)n1nc(-c2ccccc2)c(N=Nc2ccccc2C(F)(F)F)c1-c1ccccc1
inactive: [2] 102 % of control | [3] 93 % of control | [4] 88 % of control

O=[N+]([O-])/C=C\c1ccc(/C=C/[N+](=O)[O-])cc1
inactive: dose: 1.25 mg/kg/injection, schedule: Q01DX009 (ip), vehicle: saline 103 % of control and 107 % of control | dose: 1.25 mg/kg/injection, schedule: Q01DX009 (ip), vehicle: suspension in saline 103 % of control | dose: 2.5 mg/kg/injection, schedule: Q01DX009 (ip), vehicle: saline 100 % of control and 108 % of control | dose: 2.5 mg/kg/injection, schedule: Q01DX009 (ip), vehicle: suspension in saline 116 % of control | dose: 5.0 mg/kg/injection, schedule: Q01DX009 (ip), vehicle: saline 104 % of control and 107 % of control | dose: 5.0 mg/kg/injection, schedule: Q01DX009 (ip), vehicle: suspension in saline 114 % of control | dose: 10.0 mg/kg/injection, schedule: Q01DX009 (ip), vehicle: saline 106 % of control and 116 % of control | dose: 10.0 mg/kg/injection, schedule: Q01DX009 (ip), vehicle: suspension in saline 116 % of control

COc1ccccc1N=NC1=C2Sc3ccccc3N=C1N(c1ccccn1)C(=S)N2c1ccc(Cl)cc1
inactive: dose: 12.5 mg/kg/injection, schedule: Q01DX005 (ip), vehicle: saline with Tween-80 103 % of control | dose: 25.0 mg/kg/injection, schedule: Q01DX005 (ip), vehicle: saline with Tween-80 100 % of control | [2] 110 % of control and 117 % of control

COc1ccc(-c2csc(N)n2)cc1OC
inactive: dose: 100.0 mg/kg/injection, schedule: Q04DX003 (ip), vehicle: Klucel (hydroxypropylcellulose) (HPC) 98 % of control | dose: 200.0 mg/kg/injection, schedule: Q04DX003 (ip), vehicle: Klucel (hydroxypropylcellulose) (HPC) 101 % of control | dose: 400.0 mg/kg/injection, schedule: Q04DX003 (ip), vehicle: Klucel (hydroxypropylcellulose) (HPC) 102 % of control

CC(NC(=O)C(N)CSSCC(N)C(=O)NC(C)C(=O)O)C(=O)O (stereo not drawn) (I: H-Cys-Ala-OH / II: H-Cys-Ala-OH; disulfide I:1-II:1; configuration not given here)
inactive: [5] 100 % of control | [6] 104 % of control | [7] 110 % of control

CCC1(CC)NC(=O)[C@H](C)N1S(C)(=O)=O
inactive: [2] 100 % of control | [3] 96 % of control | [4] 89 % of control

FC1OC1(F)C12CC3CC(CC(C3)C1)C2 (stereo not given)
inactive: dose: 50.0 mg/kg/injection, schedule: Q01DX009 (ip), vehicle: Klucel (hydroxypropylcellulose) (HPC) 106 % of control | dose: 100.0 mg/kg/injection, schedule: Q01DX009 (ip), vehicle: Klucel (hydroxypropylcellulose) (HPC) 106 % of control | dose: 200.0 mg/kg/injection, schedule: Q01DX009 (ip), vehicle: Klucel (hydroxypropylcellulose) (HPC) 105 % of control

COC1(OC)OC2=C(OC1(OC)OC)c1ccccc1C2=O
inactive: dose: 7.5 mg/kg/injection, schedule: Q01DX005 (ip), vehicle: Klucel (hydroxypropylcellulose) (HPC) 114 % of control | dose: 15.0 mg/kg/injection, schedule: Q01DX005 (ip), vehicle: Klucel (hydroxypropylcellulose) (HPC) 114 % of control and 122 % of control | dose: 30.0 mg/kg/injection, schedule: Q01DX005 (ip), vehicle: Klucel (hydroxypropylcellulose) (HPC) 114 % of control and 115 % of control | [1] 111 % of control and 115 % of control (2×)

From PubChem BioAssay AID330 (DTP/NCI, 2004)
